Measured values as given in paper PMC10762068, “Selective blockade of Cav1.2 (α1C) versus Cav1.3 (α1D) L-type calcium channels by the black mamba toxin calciseptine” (Nature Communications, 2024).
Entries after “also recorded” stand apart in the source; their conditions may differ. Positions of bridges follow the written chain, without caps; N, C: chain ends. No end group written: not given here.

Tested on: Cav3.1 T-type
Test: Ca2+ current in HEK-293T cells expressing Cav3.1
Type: cell-based
Details: Cas 300 nM (n=13/N=3) and 1 µM (n=10/N=3); holding -80 mV, step -30 mV
Method: HEK-293T (RRID:CVCL_2737) were obtained from the European Collection of Authenticated Cell Cultures (ECACC 96121229). The identity of HEK-293T has been confirmed by STR profiling and the cells have been eradicated from mycoplasma at ECACC. We routinely tested the cells for the absence of the mycoplasma contamination. Cells were cultivated at 37 °C in DMEM supplemented with GlutaMax, 10% fetal bovine serum and 1% penicillin/streptomycin (Invitrogen, Fisher Scientific, France). […]
Macroscopic currents in HEK-293T cells were recorded at room temperature using an Axopatch 200B or Multiclamp 700B patchclamp amplifier (Molecular Devices, Sunnyvale CA). […]
In all experiments of cellular electrophysiology, we employed synthetized analog of Cas, commercially available at Latoxan (ID: L8109). […] Its measured molecular mass (7036.26 Da average) was in accordance with the mass calculated from sequence data (7036.22 Da). […]
n=10/N=3) channels. Peak current density wa s recorded starting f rom a holding potential of -80mV using an activating voltage step at -30mV for Cav3.1, f ro m a holding potential of -90mV using an activating voltage step at +20mV for Cav2.2 and f rom a holding potential of -80mV using an activating voltage step at 0mV for Cav2.1. Exam ples of recorded traces are reported. […]

Sequence: RICYIHKASLPRATKTCVENTCYKMFIRTQREYISERGCGCPTAMWPYQTECCKGDRCNK (disulfide 3-22, 17-39, 41-52, 53-58 (inferred)) [Cas, calciseptine]
- effect on Cav3.1 current: failed to detect inhibitory effect; also recorded: had no effect
